Results from patent publication US9328099B2, “Cyanomethylpyrazole carboxamides as janus kinase inhibitors” (Merck Sharp & Dohme Corp., priority 2011, dated 2016).

Legend:
JAK1 = JAK1 (Homo sapiens (Human), UniProt P23458); assay: Jak Biochemical HTRF Assay, JAK1; settings: HTRF biochemical assay, GST-tagged catalytic domain; top concentration tested […]; read-out: JAK1 IC50
Source text: (§1) Jak Biochemical HTRF Assay Protocol
(§2) Subsequent reagent additions employed an Agilent Bravo.

JAK2 = JAK2 (Homo sapiens (Human), UniProt O60674); assay: Jak Biochemical HTRF Assay, JAK2; settings: HTRF biochemical assay, GST-tagged catalytic domain; top concentration tested […]
JAK2, sequence (O60674 849-1124): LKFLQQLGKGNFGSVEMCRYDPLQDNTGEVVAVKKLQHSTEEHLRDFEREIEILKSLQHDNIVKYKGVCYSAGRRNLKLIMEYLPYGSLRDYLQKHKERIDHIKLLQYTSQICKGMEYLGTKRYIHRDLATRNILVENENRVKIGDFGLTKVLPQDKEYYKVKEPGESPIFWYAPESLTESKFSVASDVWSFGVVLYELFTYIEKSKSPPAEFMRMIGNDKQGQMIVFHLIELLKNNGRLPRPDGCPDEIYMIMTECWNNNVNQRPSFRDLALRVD
Source text: as §1, §2

JAK1, sequence (P23458 875-1153): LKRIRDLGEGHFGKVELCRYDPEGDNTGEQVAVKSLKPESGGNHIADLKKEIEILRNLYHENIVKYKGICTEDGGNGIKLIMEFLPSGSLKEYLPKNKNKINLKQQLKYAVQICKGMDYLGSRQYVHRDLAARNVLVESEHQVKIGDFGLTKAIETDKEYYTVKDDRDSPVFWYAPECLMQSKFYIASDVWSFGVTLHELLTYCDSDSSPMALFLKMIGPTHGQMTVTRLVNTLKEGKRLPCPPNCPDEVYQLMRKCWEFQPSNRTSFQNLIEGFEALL

| IC50 (JAK1) | IC50 (JAK2) | Compound |
| --- | --- | --- |
| 12 nM | 287 nM | Cc1cc(N2CCC(CC#N)(n3cc(C(N)=O)c(Nc4ccc(F)cc4)n3)CC2)ccc1F [Example 3-42, 1-[4-(cyanomethyl)-1-(4-fluoro-3-methylphenyl)piperidin-4-yl]-3-[(4-fluorophenyl)amino]-1H-pyrazole-4-carboxamide] |
| 74 nM | 285 nM | CS(=O)(=O)c1ccc(Nc2nn(C3(CC#N)CN(C(=O)OC4CCOCC4)C3)cc2C(N)=O)cc1 [Example 30-76, tetrahydro-2H-pyran-4-yl 3-(4-carbamoyl-3-{[4-(methylsulfonyl)phenyl]amino}-1H-pyrazol-1-yl)-3-(cyanomethyl)azetidine-1-carboxylate] |
| 0.3 nM | 0.8 nM | CN(C)S(=O)(=O)c1ccc(Nc2nn(C3(CC#N)CCN(C(=O)OC(C)(C)C)CC3)cc2C(N)=O)cc1 [Example 9-21, tert-butyl 4-(4-carbamoyl-3-{[4-(dimethylsulfamoyl)phenyl]amino}-1H-pyrazol-1-yl)-4-(cyanomethyl)piperidine-1-carboxylate] |
| 1 nM | 43 nM | N#CCC1(n2cc(C(N)=O)c(Nc3ccnc(F)c3)n2)CCC(Nc2ccc(F)c(F)c2)CC1 (stereo not drawn) [Example 40-20, Cis or trans 1-{1-(cyanomethyl)-4-[(3,4-difluorophenyl)amino]cyclohexyl}-3-[(2-fluoropyridin-4-yl)amino]-1H-pyrazole-4-carboxamide] |
| 28 nM | 794 nM | N#CCC1(n2cc(C(N)=O)c(Nc3ccnc(F)c3)n2)CCC(NCC(F)(F)F)CC1 (stereo not drawn) [Example 40-95, Cis or trans 1-{1-(cyanomethyl)-4-[(2,2,2-trifluoroethyl)amino]cyclohexyl}-3-[(2-fluoropyridin-4-yl)amino]-1H-pyrazole-4-carboxamide] |
| 0.2 nM | 10 nM | N#CCC1(n2cc(C(N)=O)c(Nc3ccnc(F)c3)n2)CCN(C(=O)CC(F)(F)F)CC1 [Example 35-2, 1-(4-(cyanomethyl)-1-(3,3,3-trifluoropropanoyl)piperidin-4-yl)-3-(2-fluoropyridin-4-ylamino)-1H-pyrazole-4-carboxamide] |
| 0.06 nM | 2 nM | N#CCC1(n2cc(C(N)=O)c(Nc3ccnc(F)c3)n2)CCN(Cc2ccccc2F)CC1 [Example 22-9, 1-[4-(cyanomethyl)-1-(2-fluorobenzyl)piperidin-4-yl]-3-[(2-fluoropyridin-4-yl)amino]-1H-pyrazole-4-carboxamide] |
| 3 nM | 103 nM | N#CCC1(n2cc(C(N)=O)c(Nc3ccc(F)cc3)n2)CCN(C(=O)OC2CCOCC2)CC1 [Example 30-47, tetrahydro-2H-pyran-4-yl 4-{4-carbamoyl-3-[(4-fluorophenyl)amino]-1H-pyrazol-1-yl}-4-(cyanomethyl)piperidine-1-carboxylate] |
| 79 nM | 366 nM | CS(=O)(=O)N1CC(CC#N)(n2cc(C(N)=O)c(Nc3ccccc3)n2)C1 [Example 37-16, 1-[3-(cyanomethyl)-1-(methylsulfonyl)azetidin-3-yl]-3-(phenylamino)-1H-pyrazole-4-carboxamide] |
| 1 nM | 72 nM | CC1(COC(=O)N2CCC(CC#N)(n3cc(C(N)=O)c(Nc4ccc(F)cc4)n3)CC2)CC1 [Example 30-8, (1-methylcyclopropyl)methyl 4-(4-carbamoyl-3-(4-fluorophenylamino)-1H-pyrazol-1-yl)-4-(cyanomethyl)piperidine-1-carboxylate] |
| 31 nM | 405 nM | N#CC[C@]1(n2cc(C(N)=O)c(Nc3ccccc3)n2)C[C@@H](C#N)C1 [Example 2-21, 1-((1s,3s)-3-cyano-1-(cyanomethyl)cyclobutyl)-3-(phenylamino)-1H-pyrazole-4-carboxamide] |
| 8 nM | 174 nM | Cc1cc(N2CCC(CC#N)(n3cc(C(N)=O)c(Nc4ccc(F)cc4)n3)CC2)ccn1 [Example 3-4, 1-[4-(cyanomethyl)-1-(2-methylpyridin-4-yl)piperidin-4-yl]-3-[(4-fluorophenyl)amino]-1H-pyrazole-4-carboxamide] |
| 0.5 nM | 2 nM | CC(O)c1ccc(Nc2nn(C3(CC#N)CCN(C(=O)OC(C)(C)C)CC3)cc2C(N)=O)cn1 (centres unmarked) [Example 9-7, tert-butyl 4-(4-carbamoyl-3-(6-(1-hydroxyethyl)pyridin-3-ylamino)-1H-pyrazol-1-yl)-4-(cyanomethyl)piperidine-1-carboxylate] |
| 0.5 nM | 23 nM | CC(C)(C)OC(=O)N1CCC(CC#N)(n2cc(C(N)=O)c(Nc3ccc(Br)cc3)n2)CC1 [Example 2-2, tert-butyl 4-{3-[(4-bromophenyl)amino]-4-carbamoyl-1H-pyrazol-1-yl}-4-(cyanomethyl)piperidine-1-carboxylate] |
| 7 nM | 106 nM | CCCNC(=O)N1CC(CC#N)(n2cc(C(N)=O)c(Nc3ccccc3)n2)C1 [Example 38-18, 1-[3-(cyanomethyl)-1-(propylcarbamoyl)azetidin-3-yl]-3-(phenylamino)-1H-pyrazole-4-carboxamide] |
| 14 nM | 325 nM | N#CCC1(n2cc(C(N)=O)c(Nc3ccc(F)cc3)n2)CCC(N2CCC2)CC1 (stereo not drawn) [Example 40-80, Cis or trans 1-[4-azetidin-1-yl-1-(cyanomethyl)cyclohexyl]-3-[(4-fluorophenyl)amino]-1H-pyrazole-4-carboxamide] |
| 120 nM | 1050 nM | CC(C)c1ccc(CN2CCC(CC#N)(n3cc(C(N)=O)c(Nc4ccccc4)n3)CC2)cc1 [Example 21-24, 1-{4-(cyanomethyl)-1-[4-(1-methylethyl)benzyl]piperidin-4-yl}-3-(phenylamino)-1H-pyrazole-4-carboxamide] |
| 11 nM | 308 nM | N#CCC1(n2cc(C(N)=O)c(Nc3ccnc(F)c3)n2)CCC(NCc2ccccc2F)CC1 (stereo not drawn) [Example 41-21, Cis or trans 1-{1-(cyanomethyl)-4-[(2-fluorobenzyl)amino]cyclohexyl}-3-[(2-fluoropyridin-4-yl)amino]-1H-pyrazole-4-carboxamide] |
| 0.1 nM | 6 nM | N#CCC1(n2cc(C(N)=O)c(Nc3ccnc(F)c3)n2)CCN(Cc2cccnc2F)CC1 [Example 22-23, 1-{4-(cyanomethyl)-1-[(2-fluoropyridin-3-yl)methyl]piperidin-4-yl}-3-[(2-fluoropyridin-4-yl)amino]-1H-pyrazole-4-carboxamide] |
| 3 nM | 138 nM | Cn1ccc(-c2ccc(Nc3nn(C4(CC#N)CCN(C(=O)OC(C)(C)C)CC4)cc3C(N)=O)cc2)n1 [Example 9-13, tert-butyl 4-(4-carbamoyl-3-{[4-(1-methyl-1H-pyrazol-3-yl)phenyl]amino}-1H-pyrazol-1-yl)-4-(cyanomethyl)piperidine-1-carboxylate] |
| 33 nM | 656 nM | Cc1cccc(C)c1NC(=O)N1CC(CC#N)(n2cc(C(N)=O)c(Nc3ccccc3)n2)C1 [Example 38-31, 1-{3-(cyanomethyl)-1-[(2,6-dimethylphenyl)carbamoyl]azetidin-3-yl}-3-(phenylamino)-1H-pyrazole-4-carboxamide] |
| 1 nM | 27 nM | CC(C)(C)OC(=O)N1CCC(CC#N)(n2cc(C(N)=O)c(Nc3ccccc3)n2)CC1 [Example 2-1, tert-Butyl 4-[4-carbamoyl-3-(phenylamino)-1H-pyrazol-1-yl]-4-(cyanomethyl)piperidine-1-carboxylate] |
